Reference: patent US20220169628A1 (University of Florida Research Foundation, Incorporated, priority 2019, published 2022)

Experiments:
Format in all cases: cell-based
MOLT-4 cells [1] = assay: Cell viability assay, MTS, 72 h, MOLT-4; conditions: for IC50: Homo sapiens
Method: (§1) Cancer cells from different tissue origins including acute lymphoblastic leukemia (MOLT4 and RS4; 11), small cell lung cancer (NCI-H146 or simply H146), and multiple myeloma (EJM and H929) were incubated with increasing concentrations of Examples 1-21 or ABT-263 for 72 h. Cell viability was measured by tetrazolium-based MTS assay. 5×10^4 to 1×10^5 suspension cells or 3×10^3 to 5×10^3 adherent cells were seeded and treated in 96-well plates for 72 h. The EC50 values of individual agents were calculated with GraphPad Prism.

RS4 cells = assay: Cell viability assay, MTS, 72 h, RS4;11; conditions: Homo sapiens
Method: as §1

human platelets [2] = assay: Human platelet viability, MTS assay; conditions: for IC50: Platelet, MTS assay (Table 2, FIG. 2)
Method: FIG. 2. depicts dose response curves of ABT-263 and Compound 53 in MOLT-4 T-ALL cells & human platelets determined by MTS assay.
as §1

NCI-H146 cells = assay: Cell viability assay, MTS, 48 h, NCI-H146; conditions: Homo sapiens
Method: (§2) Acute lymphoblastic leukemia cells (MOLT-4 and RS4; 11) or small cell lung cancer (NCI-H146 or simply H146) were incubated with increasing concentrations of Bcl-xL degraders for 48 h. Cell viability was measured by tetrazolium-based MTS assay.

RS4;11 cells = assay: Cell viability assay, MTS, 48 h, RS4;11; conditions: Homo sapiens, RS4-11, 48 h, 48 h, read-out: RS4, 11 IC50 (nM, 48 h)
Method: as §2

Bcl-xL [3] = target: T1, Bcl-xL (Homo sapiens, UniProt Q07817); assay: Protein degradation assay in MOLT-4 cells (western blot); set-up: endogenous in cells; host or cells: MOLT-4 cells; conditions: 16 h, read-out: DC50 (concentration with 50% degradation) of Bcl-xL
Method: (§3) MOLT4 cells and human platelets were incubated with increasing concentrations of test compounds for 16 h. The cells were harvested and lysed in RIPA lysis buffer supplemented with protease and phosphatase inhibitor cocktails. An equal amount of protein (20 μg/lane) was resolved on a pre-cast 4-20% SDS-PAGE gel. Proteins were subsequently transferred to NOVEX PVDF membranes by electrophoresis. The membranes were blocked in blocking buffer (5% non-fat dry milk in TBS-T), and incubated with primary antibodies (at optimized concentrations) overnight at 4° C. After three washings in TBS-T, the membranes were incubated with an appropriate HRP-conjugated secondary antibody for 1 h at room temperature. After extensive washing for three times, the proteins of interest were detected with ECL western blotting detection reagents and recorded with autoradiography (Pierce Biotech, Rockford, Ill., USA). The primary antibodies for Bcl-xL (Cat #2762), Bcl-2 (Cat #2872), Mcl-1 (Cat #5453) and β-actin (Cat #4970) were purchased from Cell Signaling technology. The relative band intensity was measured using ImageJ software and normalized to b-actin. The DC50 (concentration with 50% degradation) was calculated using GraphPad Prism.
MOLT-4 cells and human platelets were incubated with increasing concentrations of test compounds for 16 h. The cells were harvested and lysed in RIPA lysis buffer supplemented with protease and phosphatase inhibitor cocktails. An equal amount of protein (20 μg/lane) was resolved on a pre-cast 4-20% SDS-PAGE gel. Proteins were subsequently transferred to NOVEX PVDF membranes by electrophoresis. […] After extensive washing for three times, the proteins of interest were detected with ECL western blotting detection reagents and recorded with autoradiography (Pierce Biotech, Rockford, Ill., USA). […] The relative band intensity was measured using ImageJ software and normalized to β-actin. The DC50 was calculated using GraphPad Prism.

caspase-3 and PARP = assay: Downstream apoptotic mechanism, western blot of caspase-3 and PARP in MOLT-4 cells; conditions: after 16 h treatment
Method: […] At the end of incubation, cells were harvested for western blot analysis of cleaved and full length caspase-3 and poly (ADP) ribose polymerase (PARP). The antibodies for cleaved caspase-3 (Cat #9661) and PARP (Cat #9532) were purchased from Cell Signaling Technology.

Bcl-xL [4] = target: T1, Bcl-xL; assay: Protein degradation assay in human platelets (western blot); set-up: endogenous in cells; host or cells: human platelets; conditions: 16 h
Method: as §3, with “The primary antibodies for Bcl-xL (Cat #2762), Bcl-2 (Cat #2872), Mcl-1 (Cat #5453) and β-actin (Cat #4970) were purchased from Cell Signaling technology.” left out
MOLT-4 cells and human platelets were incubated with increasing concentrations of test compounds for 16 h. […] After extensive washing for three times, the proteins of interest were detected with ECL western blotting detection reagents and recorded with autoradiography (Pierce Biotech, Rockford, Ill., USA). […]

MOLT-4 cells [5] = assay: Cell viability assay, MTS, 48 h, MOLT-4; conditions: Homo sapiens, MOLT-4, 48 h, 48 h, read-out: MOLT-4 IC50 (nM, 48 h)
Method: as §2

human platelets [6] = assay: Human platelet viability, 48 h; conditions: Platelet
[7] = MOLT-4 T-ALL cells, MTS assay (Table 2, FIG. 2)

T1 sequence (Q07817 whole entry): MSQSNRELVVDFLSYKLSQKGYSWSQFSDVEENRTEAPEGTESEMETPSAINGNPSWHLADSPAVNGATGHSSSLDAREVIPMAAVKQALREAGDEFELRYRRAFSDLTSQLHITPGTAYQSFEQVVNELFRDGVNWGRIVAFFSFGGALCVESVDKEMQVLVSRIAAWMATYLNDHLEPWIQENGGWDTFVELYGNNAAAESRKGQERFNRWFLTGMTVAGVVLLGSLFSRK

Row | SMILES | IC50 (MOLT-4 cells [1]; [7]) [nM] | IC50 (MOLT-4 cells [1]; MOLT-4 cells, 72 h, MTS) [nM] | potency in MOLT-4 cells compared with ABT-263 (MOLT-4 cells [1]; MOLT-4 cells, FIG. 2) | IC50 (RS4 cells) [nM] | effects on human platelets compared with ABT-263 (human platelets [2]; FIG. 2) | IC50 (human platelets [2]) [nM] | IC50 (NCI-H146 cells) [nM] | IC50 (RS4;11 cells) [nM] | DC50 (Bcl-xL [3]) [nM] | cleavage of caspase-3 and PARP (caspase-3 and PARP) | Bcl-xL levels in human platelets (Bcl-xL [4]) | IC50 (MOLT-4 cells [5]) [nM] | IC50 (human platelets [6]) [µM]
1 | Cc1ncsc1-c1ccc([C@H](C)NC(=O)[C@@H]2C[C@@H](O)CN2C(=O)[C@@H](NC(=O)CCCCCCCCC(=O)NCC2(C)CCC(c3ccc(Cl)cc3)=C(CN3CCN(c4ccc(C(=O)NS(=O)(=O)c5ccc(N[C@H](CCN6CCOCC6)CSc6ccccc6)c(S(=O)(=O)C(F)(F)F)c5)cc4)CC3)C2)C(C)(C)C)cc1 (stereo partly drawn) [Compound 53, N^1-((4′-chloro-4-methyl-6-((4-(4-(((4-(((R)-4-morpholino-1-(phenylthio)butan-2-yl)amino)-3-((trifluoromethyl)sulfonyl)phenyl)sulfonyl)carbamoyl)phenyl)piperazin-1-yl)methyl)-2,3,4,5-tetrahydro-[1,1′-biphenyl]-4-yl)methyl)-N^10—((S)-1-((2S,4R)-4-hydroxy-2-(((S)-1-(4-(4-methylthiazol-5-yl)phenyl)ethyl)carbamoyl)pyrrolidin-1-yl)-3,3-dimethyl-1-oxobutan-2-yl)decanediamide] | 36 | 36 | more potent than ABT-263 | 17.4 | substantially less effects on human platelets than ABT-263 | 1550 | – | – | – | – | – | – | –
2 | Cc1ncsc1-c1ccc([C@H](C)NC(=O)[C@@H]2C[C@@H](O)CN2C(=O)[C@@H](NC(=O)CCCCCCCCC(=O)NCC2(C)CCC(c3ccc(Cl)cc3)=C(CN3CCN(c4ccc(C(=O)NS(=O)(=O)c5ccc(N[C@H](CCN6CCOCC6)CSc6ccccc6)c(S(=O)(=O)C(F)(F)F)c5)cc4)CC3)C2)C(C)(C)C)cc1 (stereo partly drawn) [degrader #5, N1-((4′-chloro-4-methyl-6-((4-(4-(((4-(((R)-4-morpholino-1-(phenylthio)butan-2-yl)amino)-3-((trifluoromethyl)sulfonyl)phenyl)sulfonyl)carbamoyl)phenyl)piperazin-1-yl)methyl)-2,3,4,5-tetrahydro-[1,1′-biphenyl]-4-yl)methyl)-N10-((S)-1-((2S,4R)-4-hydroxy-2-(((S)-1-(4-(4-methylthiazol-5-yl)phenyl)ethyl)carbamoyl)pyrrolidin-1-yl)-3,3-dimethyl-1-oxobutan-2-yl)decanediamide] | – | – | – | – | – | – | 88 | 22.2 | 21.5 | induced cleavage of caspase-3 and PARP | did not affect Bcl-xL levels | 31 | 3.5
3 | CC1(C)CCC(c2ccc(Cl)cc2)=C(CN2CCN(c3ccc(C(=O)NS(=O)(=O)c4ccc(N[C@H](CCN5CCOCC5)CSc5ccccc5)c(S(=O)(=O)C(F)(F)F)c4)cc3)CC2)C1 [ABT-263, reference compound] | 202 | – | – | – | – | 190 | 36 | 35 | – | – | – | 201 | 0.5
